Laboratory results from US6391549B1, “Monitoring gene expression” (Ramont University Authority for Applied Research & …, priority 1999, dated 2002).

Assays:
[1] = test system: E. coli K10 cultures (lacZ expression); experiment: on-line amperometric monitoring of lacZ product β-galactosidase in intact bacteria after IPTG induction; type: cell-based
Protocol: Bacterial strains and growth. E. coli K-12 strain K10 (Hfr, tonA22, ompF626, relA1, pit10, spoT1, T2^R CGSC [Coli Genetic Stot Center, New Haven, Conn.] 4234) was from the lab collection, Strains E. coli RO151 (MC4100 φ(csi-5::lacZ) and E. coli RH99 (RO151 rpoS359::Tn10) were described before (Weichart et. al., 1993). All cultures were grown aerobically at 37° C. with vigorous shaking in LB media (Miler, 1992), supplemented, when required, with 5 μg/ml of tetracycline or 25 μg/ml of kanamycin.
An on-line electroanalytical assay for β-galactosidase was used where the enzymatic activity was determined following induction with IPTG. Increasing concentrations of the inducer were added to cultures of E. coli K10 (Annette & Anthony, 1987) and the current signal was monitored on-line in all the cultures simultaneously (FIG. 3A).

[2] = test system: E. coil k-12 7118 carrying pUC-PhoA plasmid (lacZ promoter-phoA); experiment: on-line amperometric monitoring of phoA product alkaline phosphatase under lacZ promoter in intact bacteria; type: cell-based, E. coli; conditions: IPTG 0, 0.1 mM and 1 mM, FIG. 10
Source text: The expression of the enzyme AP was done by constructing a multicopy plasmid. For the construction of the plasmid, we coupled a promoter-less phoA gene to the promoter of the lacZ gene. The use of multicopy plasmid as a vector for induciable genes requires a strong repressing system to prevent constitutive expression. Therefore we used a plasmid that cares the lacI^q gene coding for a lacZ strong repressor. The plasmid was designed to generate the correct fusion between the lacZ promoter and the phoA gene. The bacteria carrying this plasmid can be immobilized and used to monitor AP by electrochemical measurements of it's activity. After the construction of the plasmid, we measured AP activity of a cell suspension in response to the appearance of IPTG.
Strain E. coil k-12 7118[F′ lacI^qΔ(lacZ)M15 proA+B+/Δ(lac-proAB) thi supE]was used for all cloning procedures, plasmid propagation and production. AP production of cells carrying the pUC-PhoA plasmid was measured on-line by the electroanalytical technique that was used for β-galactosidase as described in example 2. As shown in FIG. 10 the enzymatic activity was determined following induction with elevated concentrations of IPTG (0, 1 mM and 0.1 mM).

[3] = test system: heavy metal responsive promoter-lacZ fusion in E coli K12 MC4100; experiment: on-line monitoring of cadmium in soil samples with the reporter bacteria; type: cell-based
Protocol: (§1) The on-line monitoring procedure was performed as followed:
The same assay procedure was used to detect cadmium in soil samples. The soil was added directly to the screen-printed based electrochemical cells containing the bacteria culture as described above. Eight soil samples were monitored simultaneously by the system. The results as visualized on the computer screen are shown on FIG. 6A., Two duplicates of soil sample containing 3.8 PPM cadmium (measured by the Atomic absorption method) were compared with two duplicates of clean soil samples.

[4] = test system: heavy metal responsive promoter-lacZ fusion in E coli K12 MC4100; experiment: on-line amperometric monitoring of heavy metals with bacteria carrying heavy metal responsive promoter fused to lacZ; type: cell-based; conditions: CdCl2 5, 10 and 50 PPM added to culture, FIG. 5
Protocol: An on-line electroanlytical assays for β-galactosidase was used to monitor on-line the presence of heavy metals. The expression of the reporter gene β-galactosidase that was fused to a heavy metal responsive gene was proportional to the heavy metal concentration. We were able to monitor eight different samples simultaneously using a disposable electrodes.
as §1
a. The bacteria culture was grown on LB medium to a density of 40 K.U.
b. The culture was added to the multiple-cell device followed by the addition of the β-galactosidase substrate p-aminophenyl-b-D-galactopyranoside (PAPG).
c. A potential of 220 mV Vs Ag/AgCl reference electrode was applied by the electrochemical measurement system and electroanalytical assay for β-galactosidase was carried out as described in Example 4.
The current signal was monitored simultaneously in all the cultures.

[5] = test system: heavy metal responsive promoter-lacZ fusion in E coli K12 MC4100; conditions: HgCl2 10, 50, 100 and 500 PPM added to sea-water, FIG. 7
Protocol: Electrochemical measurements was performed using a disposable three-electrode cell made of polystyrene tubes and based on a screen-printed electrode (total volume of 0.3 ml). The assay was performed directly in the electrochemical cells that was vibrated to achieve mixing. This system allows simultaneous measurements of eight samples using a potentiostat connected to 8 channel multiplexer. The electrical current, resulting in all 8 cultures, from the activity of β-galactosidase, was visualized in real time on the computer screen. The on-line monitoring procedure was performed as followed:
The game procedure as described on Example 4 was used to monitor mercury in water and sea water samples.

[6] = molecular target: β-galactosidase (Escherichia coli, UniProt P00722); conditions: purified enzyme, PAPG substrate, 220 mV
Chain of β-galactosidase (P00722 2-1024 limits assumed): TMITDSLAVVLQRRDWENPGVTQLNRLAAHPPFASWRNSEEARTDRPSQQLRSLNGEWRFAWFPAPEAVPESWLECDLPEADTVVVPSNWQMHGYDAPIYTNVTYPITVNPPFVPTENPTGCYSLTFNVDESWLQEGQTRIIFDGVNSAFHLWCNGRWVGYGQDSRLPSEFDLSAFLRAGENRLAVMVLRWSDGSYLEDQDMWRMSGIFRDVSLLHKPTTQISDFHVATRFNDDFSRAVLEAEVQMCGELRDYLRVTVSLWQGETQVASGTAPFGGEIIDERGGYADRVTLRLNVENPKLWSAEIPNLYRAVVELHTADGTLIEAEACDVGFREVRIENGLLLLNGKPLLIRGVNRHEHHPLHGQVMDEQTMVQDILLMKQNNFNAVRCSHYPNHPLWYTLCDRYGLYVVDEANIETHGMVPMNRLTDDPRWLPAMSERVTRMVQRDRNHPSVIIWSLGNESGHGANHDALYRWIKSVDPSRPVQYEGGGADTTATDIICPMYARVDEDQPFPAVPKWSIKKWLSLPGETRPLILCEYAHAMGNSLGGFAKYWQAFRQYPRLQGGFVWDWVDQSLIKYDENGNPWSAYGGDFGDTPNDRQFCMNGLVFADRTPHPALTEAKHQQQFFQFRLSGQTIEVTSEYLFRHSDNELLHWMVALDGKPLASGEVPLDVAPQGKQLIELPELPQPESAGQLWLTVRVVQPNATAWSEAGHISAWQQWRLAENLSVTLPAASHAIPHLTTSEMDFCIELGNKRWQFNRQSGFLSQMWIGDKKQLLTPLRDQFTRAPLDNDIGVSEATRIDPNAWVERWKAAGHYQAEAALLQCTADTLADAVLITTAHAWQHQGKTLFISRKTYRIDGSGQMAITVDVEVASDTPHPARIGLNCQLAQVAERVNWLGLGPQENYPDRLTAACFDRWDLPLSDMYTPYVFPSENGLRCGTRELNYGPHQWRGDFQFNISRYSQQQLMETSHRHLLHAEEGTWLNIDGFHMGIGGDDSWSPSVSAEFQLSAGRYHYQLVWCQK
Protocol: The amperometric assay. Electrochemical measurements were performed using a disposable three-electrode cell, based on a screen-printed electrode (total volume of 0.3 ml). […] Graphite ink was used as the counter electrode and Ag/AgCl ink were the reference electrodes. Disposable graphite electrodes in cylindrical form (made from pencil leads, HB 0.9 mm) were used as the working electrodes. The assay was performed directly in the electrochemical cells which were vibrated to achieve mixing. The same screen-printed electrodes and graphite working electrode were also used for direct measurements in cultures. In this case the electrodes were placed inside the Erlenmeyer flask as shown in FIG. 1 and mixing was achieved by bubbling air. The graphite electrode was held at 220 mV versus the reference electrode and the substrate PAPG concentration was 0.4 mg/ml.
The electrochemical measurements were performed using a PAR VersaStat potentiostat connected to 8 channel PAR 314 Model multiplexer (EG&C Princeton Applied Research, Princeton, N.J.). This system allows simultaneous measurements of eight samples with disposable electrochemical cells. The measurements were controlled by a LAbVIEW-based software using a Windows 95 operating system. […]

`CC(C)S[C@@H]1O[C@H](CO)[C@H](O)[C@H](O)[C@H]1O` [IPTG, isopropyl-β-D-thiogalactopyranoside] was tested, and the “lowest IPTG concentration from which the slope was proportional” value ([1]; E. coli K10, FIG. 3B) was at least 0.5 µM, the “slope of the current signals with time (β-galactosidase induction)” value ([1]; E. coli K10, IPTG 0.5-50 μM, FIG. 3B) was “proportional to the concentrations of IPTG added” and the “current signals (alkaline phosphatase activity after induction)” value [2] was “proportional to IPTG concentations”.
In the case of `[Cl][Cd][Cl]` [cadmium, CdCl2], the “current signals versus clean soil samples” value ([3]; soil sample containing 3.8 PPM cadmium, FIG. 6) is reported as “substantially higher”, the “lowest cadmium concentration detected in soil samples” value ([3]; soil samples, average of several experiments, FIG. 6B) is reported as 0.5 PPM and the “slope of the current signals with time (reporter induction)” value [4] is reported as “proportional to the concentrations of cadmium added”.
In the case of HgCl2, the “current signal (reporter induction)” value [5] is reported as “proportional to the mercury concentrations”.
Work on “β-D-galactoside galatohydrolase; EC 3.2.1.23 [β-galactosidase]” yielded a detection limit [6] of 1 unit/ml.
